Source: ChEMBL document CHEMBL1201862, “PubChem BioAssay data set” (2004)
Calls of active or inactive are those of the source.

Tests used:
[1] = biological target: Nuclear receptor subfamily 5 group A member 2 (Homo sapiens, UniProt O00482); assay type: functional, cell-based;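 further: HEK293T cells transfected with LRH-1 and a StAR promoter luciferase reporter; potency for inhibitors that lower LRH-1 driven reporter light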
Steroidogenic factor 1 = Steroidogenic factor 1 (Homo sapiens, UniProt Q13285); experiment: Counterscreen for inverse agonists of the liver receptor homolog-1 (LRH-1; NR5A2): Luminescence-based cell-based high throughput dose response assay to identify inverse agonists of the Steroidogenic Factor 1 Nuclear Receptor (SF1; NR5A1).; assay type: functional
[2] = nonselective StAR promoter luciferase inhibitors – cell-based, luminescence, luciferase reporter, counter-screen for LRH-1 inverse agonist project, dose response (AID 651969); assay type: functional
[3] = NIH-3T3 fibroblast cytotoxicity, dose response, cytotoxicity control, cell-based, fluorescence, Alamar Blue, secondary assay (AID 2327); assay type: functional;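 further: NIH-3T3 mouse fibroblasts cultured with fluconazole at 8 µg/mL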
[4] = Luminescence Cell-Based Dose Response to Identify Activators of 5'UTR Stem-Loop Driven Prion Protein mRNA Translation in H4-C Neuroglioblastoma Cells. [Related pubchem assays: 1829 (Project Summary), 1814 (Primary HTS)]; assay type: functional
[5] = Luminescence Cell-Based Dose Confirmation HTS to Identify Activators of 5'UTR Stem-Loop Driven Alpha-Synuclein mRNA Translation in H4 Neuroglioblastoma Cells. [Related pubchem assays: 1829 (Project Summary), 1814 (Primary HTS)]; assay type: functional
[6] = Luminescence Cell-Based Dose Response HTS to Identify Activators of Luciferase Translation or Activity in H4 […] Cells. [Related pubchem assays: 1829 (Project Summary), 1814 (Primary HTS)]; assay type: functional
H4 = experiment: Luminescence Cell-Based Dose Response HTS to Identify Activators of 5'UTR Stem-Loop Driven Prion Protein mRNA Translation in H4 Neuroglioblastoma Cells. [Related pubchem assays: 1829 (Project Summary), 1814 (Primary HTS)]; assay type: functional; details: Homo sapiens
[7] = fluconazole-exposed Candida albicans growth modulators – fluorescence, retest, confirmation (AID 2467); assay type: functional, cell-based
[8] = Luminescence Cell-Based Dose Response to Identify Activators of Luciferase Translation or Activity in H4-C Neuroglioblastoma Cells. [Related pubchem assays: 1829 (Project Summary), 1814 (Primary HTS)]; assay type: functional
[9] = biological target: Serine/threonine-protein phosphatase (Candida dubliniensis (strain CD36 / CBS 7987 / NCPF 3949 / NRRLY-17841) (Yeast), UniProt B9W6M3); experiment: blockers of CaCl2-induced CDRE-lacZ signaling – S. cerevisiae, luminescence, secondary, dose response (AID 2388); assay type: functional, cell-based;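 further: yeast reporter cells carrying a calcineurin-responsive lacZ construct stimulated with calcium chloride; luminescent beta-galactosidase reporter signal in whole cells rather than isolated phosphatase activity; potency for inhibition where a drop in reporter signal means calcineurin blockade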
[10] = Luminescence Cell-Based Dose Confirmation to Identify Activators of 5'UTR Stem-Loop Driven Alpha-Synuclein mRNA Translation in H4 Neuroglioblastoma Cells. [Related pubchem assays: 1829 (Project Summary), 1814 (Primary HTS)]; assay type: functional
[11] = biological target: ATP-dependent molecular chaperone HSP82 (Candida albicans (strain WO-1) (Yeast), UniProt C4YTQ8); experiment: steroid-induced GRE reporter decrease in yeast – S. cerevisiae, luminescence, Hsp90 inhibitor project, dose response (AID 2400); assay type: functional, cell-based;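 further: beta-galactosidase luminescence from glucocorticoid response element reporter as proxy for Hsp90 function; inhibitor potency where signal loss means Hsp90 inhibition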
[12] = biological target: Arf-GAP with SH3 domain, ANK repeat and PH domain-containing protein 1 (Homo sapiens, UniProt Q9ULH1); assay type: functional;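 further: biochemical fluorescence polarization dose–response screen measuring inhibition of ASAP1; ASAP1 GAP domain stimulating GTP hydrolysis by truncated human ARF1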
H9c2 = experiment: cells; assay type: functional, cell-based; details: Rattus norvegicus, H9c2, Myocardium;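 further: confirmatory concentration-response retest of ultra-high-throughput screening hits for modulation of myocardial damage; cell death induced by hydrogen peroxide oxidative stress; compound pretreatment for 60 min then peroxide exposure for 2 h; potency is for protecting the cells against peroxide damage rather than for killing them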
[13] = bead-based luminescence quenchers, dual-tagged ARNT – biochemical, AlphaScreen, cherry-pick, artefact control for ARNT-TACC3 interaction inhibitor project, dose response (AID 651705); assay type: functional;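 further: AlphaScreen bead proximity signal that flags compounds interfering with the detection technology; potency reflects signal decrease which marks the compound as an assay artifact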
[14] = biological target: Long-chain-fatty-acid--AMP ligase FadD28 (Mycobacterium tuberculosis, UniProt P9WQ59); experiment: Fluorescence polarization aasay to screen for inhibitors that compete for the binding of FadD28 to a bisubstrate Measured in Biochemical System Using Plate Reader - 2147-01_Inhibitor_Dose_CherryPick_Activity.; assay type: functional, Mycobacterium tuberculosis H37Rv
[15] = biological target: Cyclin-dependent kinase 8 (Homo sapiens, UniProt P49336); experiment: Navigating the Kinome. Panel member name: CDK8; assay type: functional
[16] = biological target: Cyclin-dependent kinase 7 (Homo sapiens, UniProt P50613); assay type: functional;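 further: value comes from a kinome-wide kinase profiling panel in which CDK7 is one member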
[17] = biological target: Cyclin-dependent kinase 9 (Homo sapiens, UniProt P50750); assay type: functional;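 further: value from the CDK9 entry of a kinome-spanning kinase panel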
[18] = biological target: T1, Mitochondrial peptide methionine sulfoxide reductase (Bos taurus, UniProt P54149); experiment: Absorbance-based biochemical high throughput dose response assay for activators of Methionine sulfoxide reductase A (MsrA).; assay type: functional
[19] = biological target: T2, Sentrin-specific protease 8 (Homo sapiens, UniProt Q96LD8); assay type: functional
T2 sequence (Q96LD8 whole entry): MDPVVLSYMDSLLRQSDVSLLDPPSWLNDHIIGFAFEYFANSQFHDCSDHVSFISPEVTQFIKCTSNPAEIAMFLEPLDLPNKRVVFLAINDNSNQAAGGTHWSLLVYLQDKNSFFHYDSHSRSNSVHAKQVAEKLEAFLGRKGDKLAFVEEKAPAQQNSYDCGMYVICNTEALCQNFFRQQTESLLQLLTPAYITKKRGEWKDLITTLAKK

[20] = biological target: T1, Mitochondrial peptide methionine sulfoxide reductase; assay type: functional
[21] = biological target: T2, Sentrin-specific protease 8; assay type: functional; remark: listed apart in the source
[22] = biological target: Histone-lysine N-methyltransferase NSD2 (Homo sapiens, UniProt O96028); assay type: biochemical
Melanocortin receptor 4 = Melanocortin receptor 4 (Homo sapiens, UniProt P32245); experiment: inhibitors of MC4R cAMP signaling – cell-based, TR-FRET, biased antagonists, dose response (AID 602298); assay type: functional;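 further: antagonist potency against agonist-stimulated cAMP production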
[23] = cAMP pathway inhibition in counterscreen cell line – TR-FRET cAMP detection, counter-screen for MC4R biased antagonist project, dose response (AID 602305); assay type: functional, cell-based;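 further: U2OS cells stimulated with forskolin near its EC80 as the cAMP inducer; potency is for inhibition of forskolin-stimulated cAMP signaling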
Interleukin-8 = Interleukin-8 (Homo sapiens, UniProt P10145); experiment: Dose Response confirmation of uHTS small molecule hits for cystic fibrosis induced NFkb Inhibitors in a PAF-induced IL8 counterscreen.; assay type: functional; details: read-out: IC50_Mean
[24] = biological target: T3, ATP-dependent translocase ABCB1 (Homo sapiens, UniProt P08183); experiment: inhibition of BCRP-mediated JC-1 efflux – Ig-MXP3 cells, flow cytometry, set 2, dose response (AID 504566); assay type: functional; details: read-out: EC50_MICROM_;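 further: flow cytometry median green fluorescence of retained JC-1 dye; potency of efflux pump inhibition measured as rising substrate retention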
[25] = biological target: T3, ATP-dependent translocase ABCB1; experiment: P-gp JC-1 efflux blockade concentration-response – Jurkat-DNR cells, flow cytometry, set 2, dose response (AID 504569); assay type: functional; details: read-out: EC50_MICROM_;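 further: potency of pump inhibitors that raise cellular JC-1 green fluorescence up to the nicardipine level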
[26] = biological target: Mitogen-activated protein kinase 13 (Homo sapiens, UniProt O15264); assay type: functional
Beta-lactamase [27] = biological target: Beta-lactamase (Salmonella choleraesuis (strain SC-B67), UniProt Q5J463); experiment: Epi-absorbance-based counterscreen for selective VIM-2 inhibitors: dose response biochemical high throughput screening assay to identify inhibitors of TEM-1 serine-beta-lactamase.
Leucine aminopeptidase = biological target: T4, Leucine aminopeptidase (Plasmodium falciparum 3D7, UniProt Q8IL11); experiment: P. falciparum M17LAP inhibitors, primary screen, biochemical, fluorogenic H-Leu-NHMec substrate, 1536-well (AID 1619); assay type: functional
T4 sequence (Q8IL11 whole entry): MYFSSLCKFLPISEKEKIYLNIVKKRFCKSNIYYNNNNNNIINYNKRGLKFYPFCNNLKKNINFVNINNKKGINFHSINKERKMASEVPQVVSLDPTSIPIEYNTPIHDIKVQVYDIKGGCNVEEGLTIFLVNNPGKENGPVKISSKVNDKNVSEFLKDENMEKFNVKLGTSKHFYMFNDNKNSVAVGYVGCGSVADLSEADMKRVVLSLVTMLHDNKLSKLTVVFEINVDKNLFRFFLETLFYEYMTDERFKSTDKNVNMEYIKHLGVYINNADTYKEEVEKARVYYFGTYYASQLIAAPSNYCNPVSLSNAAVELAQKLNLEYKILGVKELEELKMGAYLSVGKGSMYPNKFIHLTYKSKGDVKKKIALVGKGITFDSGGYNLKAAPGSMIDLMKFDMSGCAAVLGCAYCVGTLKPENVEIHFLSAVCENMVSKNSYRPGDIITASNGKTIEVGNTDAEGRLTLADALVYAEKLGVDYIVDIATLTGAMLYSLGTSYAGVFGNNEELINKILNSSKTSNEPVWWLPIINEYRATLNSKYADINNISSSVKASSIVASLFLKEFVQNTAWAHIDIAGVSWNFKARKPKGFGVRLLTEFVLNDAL

Beta-lactamase [28] = biological target: T5, Beta-lactamase (Pseudomonas aeruginosa, UniProt Q79MP6); experiment: inhibition of IMP-1 beta-lactamase activity – biochemical, epi-absorbance, selectivity assay for VIM-2 inhibitor project, dose response (AID 1920)
Beta Lactamase [29] = biological target: T6, Beta Lactamase (Pseudomonas aeruginosa, UniProt Q932Y6); experiment: concentration-dependent VIM-2 enzyme inhibition – biochemical, epi-absorbance readout, selective inhibitors, dose response (AID 1919)
Beta-lactamase [30] = biological target: T5, Beta-lactamase; experiment: […] counterscreen for selective VIM-2 inhibitors: dose response biochemical high throughput screening assay to identify inhibitors of IMP-1 metallo-beta-lactamase.
Beta Lactamase [31] = biological target: T6, Beta Lactamase; experiment: VIM-2 CCF2 hydrolysis inhibition, assay artifact filter – biochemical, FRET readout, CCF2 substrate, artefact control for selective VIM-2 inhibitor project, dose response (AID 1926)
[32] = biological target: T7, Probable nicotinate-nucleotide adenylyltransferase (Staphylococcus aureus (strain N315), UniProt P65502); assay type: functional, Staphylococcus aureus subsp. aureus N315;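 on IC50 Mean: confirmatory dose-response retesting of NadD inhibitor hits first found in an ultra-high-throughput screen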
[33] = biological target: T7, Probable nicotinate-nucleotide adenylyltransferase; assay type: functional, Staphylococcus aureus subsp. aureus N315; details: read-out: IC50_Mean
[34] = biological target: T8, Carboxy-terminal domain RNA polymerase II polypeptide A small phosphatase 1 (Homo sapiens, UniProt Q9GZU7); experiment: CTDSP1 inhibitors, concentration-response, biochemical, absorbance readout, ultra-high-throughput screen actives (AID 540297); assay type: functional
T8 sequence (Q9GZU7 whole entry): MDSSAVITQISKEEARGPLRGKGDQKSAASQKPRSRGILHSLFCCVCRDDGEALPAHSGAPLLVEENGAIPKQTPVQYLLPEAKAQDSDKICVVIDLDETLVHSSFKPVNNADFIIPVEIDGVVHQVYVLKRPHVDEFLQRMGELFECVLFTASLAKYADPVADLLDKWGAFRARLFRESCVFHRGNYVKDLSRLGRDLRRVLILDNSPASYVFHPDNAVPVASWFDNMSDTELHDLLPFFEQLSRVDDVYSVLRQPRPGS

[35] = biological target: T9, Small ubiquitin-related modifier 1 (Homo sapiens, UniProt P63165); experiment: SUMO1 protein interaction blockers, potency – biochemical, fluorescence polarization, uHTS hits, dose response (AID 624382); assay type: functional; details: read-out: IC50_Mean
[36] = biological target: T9, Small ubiquitin-related modifier 1; experiment: SUMO1 protein-protein binding blockers, potency – biochemical, FRET, dose response (AID 624383); assay type: functional; details: read-out: IC50_Mean
[37] = biological target: ADP-ribosylation factor GTPase-activating protein 1 (Rattus norvegicus, UniProt Q62848); experiment: Fluorescence polarization-based biochemical high throughput dose response screening assay to identify inhibitors of ADP-ribosylation factor GTPase activating protein 1 (ARFGAP1).; assay type: functional
ADP-ribosylation factor GTPase-activating protein 1, sequence (Q62848 whole entry): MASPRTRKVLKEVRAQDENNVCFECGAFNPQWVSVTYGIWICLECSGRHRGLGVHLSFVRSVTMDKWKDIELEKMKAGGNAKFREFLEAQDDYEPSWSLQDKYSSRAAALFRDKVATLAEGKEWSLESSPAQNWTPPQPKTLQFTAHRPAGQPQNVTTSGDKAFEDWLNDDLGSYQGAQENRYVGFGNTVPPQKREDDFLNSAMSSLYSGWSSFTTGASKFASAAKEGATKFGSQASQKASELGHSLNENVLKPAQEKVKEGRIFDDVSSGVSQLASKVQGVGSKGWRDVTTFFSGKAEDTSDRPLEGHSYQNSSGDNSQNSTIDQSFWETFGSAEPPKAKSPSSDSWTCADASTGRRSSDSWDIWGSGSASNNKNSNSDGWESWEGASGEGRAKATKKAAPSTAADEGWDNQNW

T3 sequence (P08183 whole entry): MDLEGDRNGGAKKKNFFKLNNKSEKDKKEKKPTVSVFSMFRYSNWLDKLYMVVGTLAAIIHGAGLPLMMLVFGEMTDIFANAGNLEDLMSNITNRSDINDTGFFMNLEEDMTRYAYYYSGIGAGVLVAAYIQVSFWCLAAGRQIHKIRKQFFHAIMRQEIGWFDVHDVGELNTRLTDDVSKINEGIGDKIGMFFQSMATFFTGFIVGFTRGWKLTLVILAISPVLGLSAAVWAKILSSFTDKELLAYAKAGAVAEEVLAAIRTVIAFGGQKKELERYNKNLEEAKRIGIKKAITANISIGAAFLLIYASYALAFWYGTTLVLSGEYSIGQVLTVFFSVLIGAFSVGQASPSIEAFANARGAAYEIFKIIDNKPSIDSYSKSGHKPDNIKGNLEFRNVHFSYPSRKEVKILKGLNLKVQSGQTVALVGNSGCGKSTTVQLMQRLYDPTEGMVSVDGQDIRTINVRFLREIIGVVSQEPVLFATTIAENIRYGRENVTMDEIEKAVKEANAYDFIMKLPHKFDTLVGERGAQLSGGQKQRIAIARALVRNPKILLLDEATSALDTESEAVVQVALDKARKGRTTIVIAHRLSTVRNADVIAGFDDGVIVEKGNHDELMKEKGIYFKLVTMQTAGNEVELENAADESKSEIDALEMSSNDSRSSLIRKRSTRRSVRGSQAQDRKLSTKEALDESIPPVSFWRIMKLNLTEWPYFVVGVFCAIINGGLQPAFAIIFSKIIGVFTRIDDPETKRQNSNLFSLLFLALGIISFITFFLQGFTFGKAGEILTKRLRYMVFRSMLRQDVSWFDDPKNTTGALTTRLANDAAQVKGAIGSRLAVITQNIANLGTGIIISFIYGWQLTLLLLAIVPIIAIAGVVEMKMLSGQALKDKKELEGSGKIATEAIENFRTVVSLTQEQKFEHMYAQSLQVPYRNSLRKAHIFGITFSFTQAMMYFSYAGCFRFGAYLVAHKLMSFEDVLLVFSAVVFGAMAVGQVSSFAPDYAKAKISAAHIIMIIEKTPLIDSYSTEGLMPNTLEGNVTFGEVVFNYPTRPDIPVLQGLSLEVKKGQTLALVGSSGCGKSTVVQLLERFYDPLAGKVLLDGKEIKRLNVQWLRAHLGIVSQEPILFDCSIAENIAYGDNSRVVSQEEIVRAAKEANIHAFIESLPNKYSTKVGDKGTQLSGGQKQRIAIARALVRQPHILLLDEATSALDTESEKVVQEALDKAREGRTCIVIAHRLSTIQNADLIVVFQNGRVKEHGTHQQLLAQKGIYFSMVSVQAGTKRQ
T1 sequence (P54149 whole entry): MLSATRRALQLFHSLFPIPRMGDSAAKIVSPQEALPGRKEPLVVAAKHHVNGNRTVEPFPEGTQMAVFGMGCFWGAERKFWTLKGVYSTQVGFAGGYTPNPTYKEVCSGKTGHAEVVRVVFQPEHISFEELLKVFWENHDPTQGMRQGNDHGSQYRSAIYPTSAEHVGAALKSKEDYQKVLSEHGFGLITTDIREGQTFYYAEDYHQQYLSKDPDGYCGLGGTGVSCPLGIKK
T9 sequence (P63165 whole entry): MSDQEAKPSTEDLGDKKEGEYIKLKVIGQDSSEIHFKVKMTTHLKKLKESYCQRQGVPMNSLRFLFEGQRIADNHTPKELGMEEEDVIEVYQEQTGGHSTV
T7 sequence (P65502 whole entry): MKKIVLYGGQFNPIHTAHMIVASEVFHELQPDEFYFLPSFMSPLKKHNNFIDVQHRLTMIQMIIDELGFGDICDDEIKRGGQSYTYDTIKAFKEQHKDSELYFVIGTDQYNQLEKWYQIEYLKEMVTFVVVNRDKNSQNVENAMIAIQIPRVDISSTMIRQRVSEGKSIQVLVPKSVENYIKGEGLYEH
T6 sequence (Q932Y6 whole entry): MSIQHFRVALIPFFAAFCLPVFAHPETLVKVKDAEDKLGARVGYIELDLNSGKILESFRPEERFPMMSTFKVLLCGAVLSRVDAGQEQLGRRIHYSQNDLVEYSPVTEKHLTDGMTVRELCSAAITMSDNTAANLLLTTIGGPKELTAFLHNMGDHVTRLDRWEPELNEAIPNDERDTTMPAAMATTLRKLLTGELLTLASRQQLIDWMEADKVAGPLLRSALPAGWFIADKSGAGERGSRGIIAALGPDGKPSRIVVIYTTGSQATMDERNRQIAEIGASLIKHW
T5 sequence (Q79MP6 whole entry): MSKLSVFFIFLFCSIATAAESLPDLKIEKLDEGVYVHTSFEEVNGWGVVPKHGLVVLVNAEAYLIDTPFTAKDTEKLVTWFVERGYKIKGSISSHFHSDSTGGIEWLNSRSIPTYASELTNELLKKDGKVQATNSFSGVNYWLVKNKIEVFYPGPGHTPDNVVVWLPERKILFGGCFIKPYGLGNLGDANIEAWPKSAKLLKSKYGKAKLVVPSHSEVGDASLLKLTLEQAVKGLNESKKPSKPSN
Cyclin-dependent kinase 8, sequence (P49336 whole entry): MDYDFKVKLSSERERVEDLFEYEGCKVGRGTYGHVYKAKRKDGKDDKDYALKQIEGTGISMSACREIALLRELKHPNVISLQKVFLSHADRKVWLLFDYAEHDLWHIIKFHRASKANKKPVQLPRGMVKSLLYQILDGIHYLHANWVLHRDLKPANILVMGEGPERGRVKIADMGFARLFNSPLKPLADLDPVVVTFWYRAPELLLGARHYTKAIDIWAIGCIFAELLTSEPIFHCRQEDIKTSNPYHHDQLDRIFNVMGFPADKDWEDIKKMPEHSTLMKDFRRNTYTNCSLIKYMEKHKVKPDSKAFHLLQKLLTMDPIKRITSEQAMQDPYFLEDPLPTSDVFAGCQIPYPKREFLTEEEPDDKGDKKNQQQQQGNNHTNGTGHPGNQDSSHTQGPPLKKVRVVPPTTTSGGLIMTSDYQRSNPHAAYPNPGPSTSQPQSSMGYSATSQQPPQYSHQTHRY
Beta-lactamase (Salmonella choleraesuis (strain SC-B67), UniProt Q5J463), sequence (Q5J463 whole entry): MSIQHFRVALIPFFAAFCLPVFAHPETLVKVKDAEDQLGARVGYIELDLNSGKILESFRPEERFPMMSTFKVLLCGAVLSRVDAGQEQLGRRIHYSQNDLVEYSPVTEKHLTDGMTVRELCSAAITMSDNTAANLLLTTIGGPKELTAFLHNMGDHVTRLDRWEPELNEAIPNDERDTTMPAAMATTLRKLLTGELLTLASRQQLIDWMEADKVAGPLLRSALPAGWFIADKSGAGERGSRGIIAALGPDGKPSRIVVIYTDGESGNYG
Serine/threonine-protein phosphatase, sequence (B9W6M3 whole entry): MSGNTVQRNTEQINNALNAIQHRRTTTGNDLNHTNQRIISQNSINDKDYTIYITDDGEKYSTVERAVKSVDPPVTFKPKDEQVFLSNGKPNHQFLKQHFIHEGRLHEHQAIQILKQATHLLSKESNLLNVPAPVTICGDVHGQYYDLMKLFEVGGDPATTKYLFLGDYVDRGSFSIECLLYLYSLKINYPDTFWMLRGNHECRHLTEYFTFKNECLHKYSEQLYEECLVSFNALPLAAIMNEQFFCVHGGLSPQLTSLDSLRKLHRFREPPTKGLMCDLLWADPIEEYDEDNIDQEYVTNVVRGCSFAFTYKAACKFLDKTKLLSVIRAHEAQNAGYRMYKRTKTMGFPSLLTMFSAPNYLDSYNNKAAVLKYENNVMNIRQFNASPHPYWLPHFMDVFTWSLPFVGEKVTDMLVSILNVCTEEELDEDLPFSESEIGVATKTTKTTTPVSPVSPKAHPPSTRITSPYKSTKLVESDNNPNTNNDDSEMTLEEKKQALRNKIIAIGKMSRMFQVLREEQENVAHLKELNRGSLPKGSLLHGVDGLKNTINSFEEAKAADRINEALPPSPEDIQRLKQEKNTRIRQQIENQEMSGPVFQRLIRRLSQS
Melanocortin receptor 4, sequence (P32245 whole entry): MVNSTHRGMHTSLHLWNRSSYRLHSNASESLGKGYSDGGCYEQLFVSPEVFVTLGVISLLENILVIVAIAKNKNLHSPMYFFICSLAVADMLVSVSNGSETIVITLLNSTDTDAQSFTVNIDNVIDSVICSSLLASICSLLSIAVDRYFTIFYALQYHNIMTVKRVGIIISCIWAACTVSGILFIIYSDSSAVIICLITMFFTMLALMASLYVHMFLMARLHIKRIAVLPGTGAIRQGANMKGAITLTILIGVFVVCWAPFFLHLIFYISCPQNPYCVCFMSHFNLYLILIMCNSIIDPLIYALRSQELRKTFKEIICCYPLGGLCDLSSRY
Cyclin-dependent kinase 7, sequence (P50613 whole entry): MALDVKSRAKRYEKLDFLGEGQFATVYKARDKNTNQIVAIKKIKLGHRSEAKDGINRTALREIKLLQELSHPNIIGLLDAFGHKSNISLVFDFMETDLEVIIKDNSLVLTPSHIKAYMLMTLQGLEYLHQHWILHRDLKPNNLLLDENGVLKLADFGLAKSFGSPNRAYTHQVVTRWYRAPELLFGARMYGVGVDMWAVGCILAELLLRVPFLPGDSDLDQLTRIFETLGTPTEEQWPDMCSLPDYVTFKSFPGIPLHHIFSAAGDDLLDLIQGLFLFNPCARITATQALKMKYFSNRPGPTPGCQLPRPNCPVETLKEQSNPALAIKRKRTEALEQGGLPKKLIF
Interleukin-8, sequence (P10145 whole entry): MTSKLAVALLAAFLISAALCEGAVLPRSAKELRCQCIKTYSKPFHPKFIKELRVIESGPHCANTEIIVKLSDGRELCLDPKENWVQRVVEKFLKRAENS

Cc1no[n+]([O-])c1COc1ccc(/C=C2\NC(=S)NC2=O)cc1
IC50 [1]: 0.578 µM (active) | IC50 (Steroidogenic factor 1): 1.34 µM (active) | IC50 [2]: 35.9 µM (inactive)

Clc1ccc(CONc2ncnc3nonc23)c(Cl)c1
EC50 [3]: > 160 µM (inactive) | EC50 [4]: 1.14 µM (active) | EC50 [5]: 22.4 µM (active) | EC50 [6]: < 0.1 µM (inconclusive) | EC50 (H4): 52.6 µM (active) | EC50 [7]: 1.26 µM (active) | EC50 [8]: 0.516 µM (active) | EC50 [9]: > 180 µM (inactive) | EC50 [10]: > 12 µM (not active) | EC50 [11]: 19.4 µM (active)

Clc1ccc(OCc2nn3c(-c4ccco4)nnc3s2)c(Cl)c1
IC50 [12]: 22.8 µM (inactive)

CCCn1nc(C(=O)Nc2nc(-c3ccccn3)cs2)c2ccccc2c1=O
IC50 (H9c2): > 79 µM (inactive) | AC50 [13]: 81.7 µM (active)

O=C(CN1C(=O)NC2(CCOc3ccccc32)C1=O)c1ccc(Cl)cc1 (stereo not drawn)
AC50 [14]: 47.9 µM (active)

OCC1OC(n2cnc3cc(Cl)c(Cl)cc32)C(O)C1O (stereo not drawn)
Ki [15]: 2 µM (active) | Ki [16]: 2.51 µM (active) | Ki [17]: 0.126 µM (active)

O=[N+]([O-])c1ccc(-[n+]2nc(-c3ccccc3)nn2-c2ccccc2)cc1
EC50 [18]: > 104 µM (inactive) | IC50 [19]: 23.7 µM (active) | IC50 [20]: 35.9 µM (inactive) | IC50 [21]: 5.48 µM (active) | AC50 [22]: 0.654 µM (active)

COC(=O)CSc1nnc(-c2ccc(S(=O)(=O)N3CCCCC3)cc2)o1
IC50 (Melanocortin receptor 4): > 64.6 µM (inactive) | IC50 [23]: > 64.6 µM (inactive)

c1ccc2c(-c3cncc4ccccc34)cncc2c1
IC50 (Interleukin-8): 16 µM (inactive)

O=C(c1ccco1)N1CCN(c2c3c(nc4cc(-c5cccc(F)c5)nn24)CCCC3)CC1
EC50 [24]: 1.79 µM (active) | EC50 [25]: 4.41 µM (active)

CNCc1ccc(-c2[nH]c3cc(F)cc4c3c2CCNC4=O)cc1 [RUCAPARIB]
Ki [26]: > 7.94 µM (inactive)

O=C(O)c1cccc(NC(=S)N/N=C/c2ccccc2OCc2ccc(Br)cc2)c1
IC50 (Beta-lactamase [27]): > 59.6 µM (inactive) | IC50 (Leucine aminopeptidase): 13.3 µM (active) | IC50 (Beta-lactamase [28]): > 59.6 µM (inactive) | IC50 (Beta Lactamase [29]): 10 µM (inactive) | IC50 (Beta-lactamase [30]): > 59.6 µM (inactive) | IC50 (Beta Lactamase [31]): 0.885 µM (active) | IC50 [32]: 3.73 µM (active) | IC50 [33]: 15.4 µM (active)

CC(Cc1c[nH]c2ccccc12)C(=O)NCc1ccco1 (stereo not drawn)
IC50 [34]: 19.4 µM (active) | IC50 [35]: > 66.6 µM (inactive) | IC50 [36]: 12.2 µM (active)

O=C(Nc1nnc(-c2ccc3c(c2)OCCO3)o1)c1ccc(Cc2ccccc2)cc1
IC50 [37]: 7.92 µM (active)
